Laboratory results published in patent publication US20050221422A1, “Novel galactose transferases, peptides thereof and nucleic acid encoding the same” (priority 2002, published 2005).
Ends that are not written are not given here. T(GalNAc) = N-acetylgalactosamine-glycosylated threonine

What was measured:
C1Gal-T2 = assay: Screening for acceptor substrate of C1Gal-T2 (UDP-[14C]-Gal transfer, TLC, LSC-C1Gal-T2 cell extract); format: biochemical, human; conditions: LSC-C1Gal-T2 cell extract as enzyme source; acceptor substrate 10 nmol; 37° C. for two hours
Protocol: The reaction system below was used to investigate C2 acceptor substrates. To investigate whether pNp-α-GalNAc or pNp-β-GalNAc (both from Sigma) functioned as acceptors, each was used as an “acceptor substrate” in the following reaction solution:
The reaction solution (the parentheses show final concentrations) comprised acceptor substrate (10 nmol), HEPES buffer (pH 7.4) (14 mM), MnCl2 (12.5 mM), UDP-Gal (250 μM), and UDP-[^14C]-Gal (175 nCi). 5 μl of enzyme solution was added to this reaction solution, followed by the addition of H2O to a total volume of 20 μl. The enzyme solution was prepared by suspending cells (5×10^6 cells) in 50 ml of cell lysing buffer (HEPES buffer (pH 7.4) (20 mM), NaCl (154 mM) and TritonX-100 (1%)), incubating at 4° C. for 15 minutes in a water bath type ultrasonic homogenizer, centrifuging, and then obtaining the supernatant for the enzyme solution. The aforementioned reaction mixture was reacted at 37° C. for two hours. Following completion of the reaction, 200 μl of H2O was added to the mixture, which was gently centrifuged to obtain the supernatant. […] After drying the plate, the amount of radioactivity taken up by the product was measured using the Bio Image Analyzer FLA3000 (Fuji Photo Film).

C1Gal-T3 = target: T1, C1Gal-T3 (Homo sapiens, UniProt P0DN25); assay: Galactose transferring activity of C1Gal-T3 recombinant enzyme on N-acetylgalactosaminyl peptides; format: biochemical; conditions: C1Gal-T3 recombinant enzyme expressed in COS-1 cells as enzyme source
T1 construct: a carboxyl terminal region (enzyme activity region) minus the transmembrane region at the amino terminus; preprotrypsin secretion signal (N); made in house; host or cells: COS-1 cells, transient transfection with pFLAG-C1Gal-T3; purified from culture supernatant on anti-FLAG M1 agarose
T1 sequence (P0DN25 30-315 limits assumed): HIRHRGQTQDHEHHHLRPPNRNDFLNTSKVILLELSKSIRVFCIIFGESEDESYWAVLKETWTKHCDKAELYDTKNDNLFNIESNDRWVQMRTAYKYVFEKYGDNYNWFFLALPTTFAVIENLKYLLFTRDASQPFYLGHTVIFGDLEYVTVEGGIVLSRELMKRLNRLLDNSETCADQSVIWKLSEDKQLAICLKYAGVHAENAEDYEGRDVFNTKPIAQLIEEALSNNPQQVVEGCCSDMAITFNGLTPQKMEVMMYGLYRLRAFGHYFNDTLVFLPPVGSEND
Protocol: The reaction solution (parentheses indicate final concentrations) comprised acceptor substrate (5 pmol), MES buffer (pH 6.5) (100 mM), MnCl2 (20 mM), ATP (2 mM), and UDP-Gal (0.5 mM). 5 μl of […] enzyme source was added to this reaction solution, which was then brought to a total volume of 20 μl by adding H2O.
The above reaction mixture was reacted at 37° C. for eight hours. After completion of the reaction, 60 μl of H2O was added, and the mixture was gently centrifuged to acquire the supernatant. This supernatant was purified through an Ultra Free MC Column (Millipore), and 30 μl of thus-purified solution was analyzed using high-performance liquid chromatography (HPLC). CAPCELL PAK C18 UG120 (Shiseido) was used as the column, 0.1% trifluoroacetic acid was used as the separation buffer, and the elution was carried out over an acetonitrile concentration gradient of 15-30%. The flow rate was 1 ml/minute.
Galactose transferring activity was measured using the C1Gal-T3 recombinant enzyme expressed in COS-1 cells as an enzyme source, and using the N-acetylgalactosaminyl peptides used in Example 5 as acceptor substrates.

Compound	reaction as acceptor substrate (galactose transfer from UDP-Gal) (C1Gal-T2)	galactose transferring activity (C1Gal-T3)
CC(=O)N[C@H]1[C@@H](Oc2ccc([N+](=O)[O-])cc2)O[C@H](CO)[C@H](O)[C@@H]1O [pNp-α-GalNAc]	reacted strongly	–
CC(=O)N[C@H]1[C@H](Oc2ccc([N+](=O)[O-])cc2)O[C@H](CO)[C@H](O)[C@@H]1O [pNp-β-GalNAc]	did not react	–
VPST(GalNAc)PPTPSPSTPPTPSPS ({Val-Pro-Ser-T(GalNAc)}-PPTPSPSTPPTPSPS) [4-GalNAc-HP, human IgA1 hinge peptide with GalNAc on the 4th residue]	–	could be confirmed
